Like-named read-outs stand apart in the source and are kept apart here.
Key:
[1] = Clinical assessment: toxicity (CTC version 2.0), dose-limiting toxicity; assay type: in vivo, human
Description: The second and third subjects in the cohort were to be started only when the first subject completed the first intravenous and the oral treatment (i.e., 8-day period) without a dose-limiting toxicity (DLT). If a DLT occurred in 1 of 3 subjects of either the first or the second cohort, 3 supplementary subjects were to be added to that cohort. If more than 1 subject experienced DLT (either in the first 3 subjects or in the extended cohort of 6 subjects), dose escalation was to be terminated, and other subjects in that cohort had to complete their therapy at the same dose.
(§1) Complete patient history was taken, and a physical examination (including vital signs), hematological tests, and clinical chemistry tests were performed at baseline and during treatment. To assess cardiovascular safety, twelve-lead E.C.G.s were recorded at screening, during Cycle 1 and at the end of therapy. Although objective tumor response was not the primary objective of this study, an attempt was made to obtain appropriate measurements to assess response. All adverse events and clinically relevant laboratory abnormalities were graded according to Common Toxicity Criteria (CTC version 2.0)

[2] = oral 50- to 500-mg b.i.d.; cited from earlier work
[3] = cited from earlier work
[4] = molecular target: human farnesyltransferase (FTase) (Homo sapiens, UniProt P49354+P49356); settings: in vitro and in vivo; cited from earlier work
plasma proteins [5] = assay: Tipifarnib protein binding analysis, equilibrium dialysis of patient plasma (ex vivo); assay type: in vitro ADME, human
Procedure: Tipifarnib was specifically labeled with [^14C] at the asymmetric carbon atom. A 7-mL blood sample was taken from 24 patients at 4 hours after the start of the continuous intravenous infusion of tipifarnib on Day 4. The plasma samples were fortified with [^14C]-tipifarnib at 500 ng/ml. The fortified plasma samples were subjected to equilibrium dialysis against a 0.067 M phosphate buffer, pH 7.17 at 37° C. for 4 hours in a Dianorm system with identical macro-1 Teflon cells and Diachema 10.17 dialysis membranes (MW cut-off 10,000). Radioactivity levels were measured in duplicate 100-μl aliquots of the fortified plasma before and after equilibrium dialysis, and in 1000-μl duplicate aliquots of the contents of buffer compartments of the dialysis cells admixed with methanol after dialysis in a Packard Tri-Carb 1900 TR liquid scintillation spectrometer. The total protein concentration was determined with a colorimetric biureet method, kit Roche Diagnostics 1929917. The albumin concentration was determined with a colorimetric bromocresol green method kit Roche Diagnostics 1970909. The α1-acid glycoprotein concentration was determined with an immuno-turbidimetric method, kit Roche Diagnostics 1557602. All these tests were performed on a Roche Hitachi Modular analyser. […]

CYP3A4 = CYP3A4 (Homo sapiens, UniProt P08684); settings: compared to CYP2C19, CYP2A6, CYP2D6, CYP2C8/9/10; cited from earlier work
CYP3A4, sequence (P08684 whole entry): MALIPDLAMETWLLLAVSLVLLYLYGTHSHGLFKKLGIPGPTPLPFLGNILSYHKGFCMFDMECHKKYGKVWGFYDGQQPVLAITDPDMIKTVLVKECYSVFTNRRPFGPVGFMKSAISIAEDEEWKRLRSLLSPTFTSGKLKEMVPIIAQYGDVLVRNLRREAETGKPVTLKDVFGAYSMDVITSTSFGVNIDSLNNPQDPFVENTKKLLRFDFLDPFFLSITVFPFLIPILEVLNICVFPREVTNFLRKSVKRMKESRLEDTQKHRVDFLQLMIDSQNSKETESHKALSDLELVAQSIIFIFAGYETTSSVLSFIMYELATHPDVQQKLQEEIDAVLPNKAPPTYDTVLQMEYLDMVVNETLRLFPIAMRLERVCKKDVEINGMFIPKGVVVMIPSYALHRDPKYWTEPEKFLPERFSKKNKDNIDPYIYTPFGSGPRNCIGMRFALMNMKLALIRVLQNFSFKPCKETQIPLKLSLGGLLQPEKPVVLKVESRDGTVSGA

advanced solid tumor = assay: Clinical assessment: efficacy / tumor response; assay type: in vivo, human
Procedure: as §1

[6] = Solubility and hydrolytic stability of tipifarnib in water; assay type: physicochemical
Procedure: Tipifarnib is a base with very good water solubility at acidic pH. It hydrolyzes to R110127, wherein the amine functionality is replaced by a hydroxy functionality. […] R110127 has the following structure: [drawing 2]
[…] is added to Formulation 1 to solubilize tipifarnib when it is reconstituted with Formulation 2. The pH value of the reconstituted solution is ˜4.5. At this pH value tipifarnib precipitates if no Hydroxypropyl-β-cyclodextrin is present. The risk of local irritation during infusion into a peripheral vein (arm) is at an acceptable level at this pH value.

[7] = Plasma pharmacokinetics of tipifarnib after oral, 2-hour i.v. and continuous i.v. administration in cancer patients; assay type: in vivo, human; settings: for systemic exposure (AUC0-10h) lower relative to 200 mg oral dose: Day 4, cohort 1 (3 subjects); for systemic exposure lower relative to 200 mg oral dose: cohort 2 (3 subjects); for bioavailability: oral, dose-normalized AUC0-10h, fed, read-out: mean absolute bioavailability of the oral tablet; for bioavailability / Tmax: 200 mg; for Tmax: po
Procedure: The objective of the first (dose-determination) phase of the study was to identify an intravenous regimen that was well tolerated. It was expected that this regimen would be equivalent to 50% -60% of a clinically relevant oral dose (200 mg), based on a prior pilot determination of absolute bioavailability in healthy male volunteers. A first cohort of 3 subjects received the following uninterrupted 4-day consecutive treatments of tipifarnib: 30 mg as a 2-hour intravenous infusion b.i.d. on Day 1-4, followed by 200 mg as oral administration b.i.d. on Day 5-8, followed by 60 mg per day as a continuous intravenous infusion on Day 9-12. Similarly, a second cohort of 3 subjects received similar 4-day regimens of tipifarnib: 60 mg as a 2-hour intravenous infusion b.i.d., followed by 200 mg as oral administration b.i.d., followed by 120 mg per day as a continuous intravenous infusion. There was no washout period between each of the 4-day oral or i.v. treatments described.
The second (i.v.-oral bridging) phase of the study was completed in separate group of patients. Systemic exposure to tipifarnib following the selected 2-hour and continuous intravenous regimens (from the previous dose-determination phase) was compared to exposure after a 200-mg b.i.d. oral regimen. The bridging phase was initiated when at least 2 subjects of the second cohort of the dose-determination phase were observed without DLT until Day 21. A total of 24 subjects were randomly assigned in a 1:1 ratio to one of two treatment sequences at the chosen intravenous regimens, in order to account for potential sequence-effects.
Sequence 1: 100 mg b.i.d. administered as a 2-hour intravenous infusion on Days 1-4, followed by 200 mg oral tablets b.i.d. on Days 5-8, then 200 mg/day administered as a continuous 4-day intravenous infusion on Days 9-12.
Sequence 2: 200 mg/day administered as a continuous 4-day intravenous infusion on Days 1-4, followed by 200 mg oral tablets b.i.d. on Days 5-8, then 100 mg b.i.d. administered as a 2-hour intravenous infusion on Days 9-12.
In both the dose-determination and the bridging phases, pharmacokinetic sampling was performed during a 10-hour period from the start of the morning dose on Day 4 of each treatment. Whole blood samples were taken immediately before, and 0.5, 1, 2, 3, 4, 6, 8, and 10 hours after oral administration. For 2-hour intravenous infusion, blood samples were taken immediately before, and 1, 2 (i.e. just before the end of the infusion), 2.25, 3, 4, 6, 8, and 10 hours after dosing. Blood samples were taken immediately before, and 2, 4, 6, 8, and 10 hours after the start of the continuous intravenous infusion.
A minimum of 7 mL of blood for each PK sample was collected. Whole blood samples were immediately placed on ice and centrifuged within 2 hours after collection (10 min, 1000×g). Separated plasma was frozen immediately at ≦−18° C. until assayed.
Plasma samples were thawed at room temperature, and individual sample was analyzed for tipifarnib using a previous published method. To 1-ml aliquots of human plasma, 200 ng of the internal standard (R121550, a structural analog) was spiked. After adding 1 ml of NaOH (0.1M), the samples were extracted twice with 4 ml of heptane containing 10% of isoamylalcohol. The combined organic phases were back-extracted with 2 ml of HCl (2M). After alkalization with concentrated ammonia, the aqueous phase was extracted once with 5 ml of heptane containing 5% of isoamylalcohol. This extract was evaporated under nitrogen at 65° C. and the residue dissolved in 100 microliters of injection solvent (Ammoniumacetate 0.01M/acetonitile/methanol; 50/25/25). A 15 μl extract was injected into an HPLC with UV detection (Agilent) at a wavelength of 240 nm. Separation was performed on a 10 cm×4.6 mm chromatographic column, packed with 3 μm C 18 BDS-Hypersil (Alltech). […]

human hepatocytes = settings: in vitro; cited from earlier work
plasma proteins [8] = assay: In vitro plasma protein binding, plasma from 5 healthy men; assay type: in vitro ADME, human
Description: The value of the plasma protein binding of tipifarnib from the ex vivo measurement on cancer subjects in this trial is very close to that (99.22% bound) obtained from an in vitro experiment with the plasma samples from 5 healthy men. […]

[9] = oral administration, cited from earlier work
[10] = 2-hour i.v. infusion 100 mg b.i.d. versus oral 200 mg b.i.d.

Compound: Cn1cncc1[C@@](N)(c1ccc(Cl)cc1)c1ccc2c(c1)c(-c1cccc(Cl)c1)cc(=O)n2C [tipifarnib]
- febrile neutropenia, subjects ([1]; 1 subject): 3%
- Grade 3 or 4 drug-related neutropenia, patients ([1]; 9/30 patients): 30%
- phlebitis ([1]; IV bolus via peripheral venous access, not observed via central vein): 3 subjects
- dose limiting toxicity ([1]; cohort 1: 30 mg b.i.d. 2-hour i.v., 60 mg per day continuous i.v.): No dose limiting toxicity
- dose limiting toxicity (DLT) ([1]; cohort 2: 60 mg b.i.d. 2-hour i.v., 120 mg per day continuous i.v.): no DLT was observed
- adverse events associated with intravenous administration ([1]; intravenous tipifarnib): No unusual adverse events
- drug-related anorexia ([1]; mainly grade 1): 20%
- drug-related diarrhea ([1]; mainly grade 1): 13%
- drug-related fatigue ([1]; mainly grade 1): 60%
- drug-related nausea ([1]; mainly grade 1): 40%
- drug-related vomiting ([1]; mainly grade 1): 17%
- peak concentration range [2]: 68 to 1458 ng/mL
- mean AUC0-10h ([3]; 150 mg orally twice daily): 2495 ng·h/mL
- mean Cmax ([3]; 150 mg orally twice daily): 443 ng/mL
- mean AUC0-10h ([3]; 300 mg orally twice daily): 4674 ng·h/mL
- mean Cmax ([3]; 300 mg orally twice daily): 974 ng/mL
- inhibition of human farnesyltransferase (FTase) [4]: potent and selective nonpeptidomimetic competitive inhibitor
- mean free (unbound) fraction (plasma proteins [5]; plasma drawn 4 hours after start of continuous i.v. infusion, Day 4): 0.62%
- dependence of unbound fraction on total drug plasma concentration (plasma proteins [5]; range 211 ng/mL to 812 ng/mL): independent of total drug plasma concentration
- CYP450 metabolic pathway (CYP3A4): CYP3A4 was a predominant metabolic pathway
- objective tumor responses (advanced solid tumor; 31 subjects evaluable): No objective tumor responses were observed
- stable disease for at least 6 months (advanced solid tumor; 31 subjects evaluable): 14 subjects
- duration of hematological improvement (durable increase in hemoglobin) (advanced solid tumor; one subject with MDS): 8 months
- water solubility ([6]; acidic pH): very good
- rate of hydrolytic degradation to R110127 ([6]; aqueous): lowest at acidic condition but still very fast
- solubility in reconstituted solution ([6]; pH ~4.5, without hydroxypropyl-β-cyclodextrin): precipitates
- systemic exposure (AUC0-10h) lower relative to 200 mg oral dose ([7]; 30 mg b.i.d. 2-hour intravenous infusion): approximately 64%
- systemic exposure lower relative to 200 mg oral dose ([7]; 60 mg b.i.d. 2-hour intravenous infusion): approximately 47%
- systemic exposure (AUC0-10h) lower relative to 200 mg oral dose ([7]; 60 mg per day continuous intravenous infusion): ~59%
- systemic exposure lower relative to 200 mg oral dose ([7]; 120 mg per day continuous infusion): ~46%
- AUC0-10h higher than after oral administration [7, 10]: 19.3%
- Cmax higher than after oral administration [7, 10]: 48.0%
- bioavailability ([7]; human, plasma, oral versus 2-hour i.v.): 46.3%
- bioavailability ([7]; human, plasma, oral versus continuous intravenous infusion): 40.9%
- Tmax ([7]; human, plasma, oral 200 mg b.i.d. for 4 days, read-out: time of maximum plasma concentration (tmax)): ~2 h
- Tmax ([7]; human, plasma, oral 200 mg b.i.d., 29 subjects, read-out: range of tmax): 0.5 to 3 h
- AUC(0-t) ([7]; human, plasma, oral 200 mg b.i.d., 2-hour i.v. 100 mg b.i.d., continuous i.v. 200 mg/day, read-out: range of mean AUC0-10h values across the 3 treatments): 3990 to 4490 ng·h/mL
- AUC(0-t) ([7]; human, plasma, oral 200 mg b.i.d., Day 4, n=24, read-out: arithmetic mean AUC0-10h (±SD)): 3990 ± 1670 ng·h/mL
- Cmax ([7]; human, plasma, oral 200 mg b.i.d., Day 4, n=24, read-out: arithmetic mean Cmax (±SD)): 994 ± 487 ng/mL
- arithmetic mean AUC0-10h (±SD) ([7]; oral 200 mg b.i.d., Day 4, n=24): 3990 ng·h/mL
- metabolism in human hepatocytes (human hepatocytes): undergoes direct glucoronidation
- fraction unbound at 4 h, 1000 ng/mL (plasma proteins [8]; male, human, pH 7.17, blank plasma fortified with 14C-tipifarnib at 1000 ng/mL, read-out: plasma protein binding (bound) (converted)): 0.0078
- dependence of in vitro plasma protein binding on total tipifarnib concentration (plasma proteins [8]; range 100 to 5000 ng/mL): independent of the total tipifarnib concentrations
- concentrations of unchanged tipifarnib lower than total radioactivity concentrations ([9]; deproteinized samples): approximately 8 times
- concentrations of unchanged tipifarnib lower than total radioactivity concentrations ([9]; nonprecipitated samples): 42 times
- oral dose recovered in faeces as tipifarnib [9]: less than 7%
- unchanged drug excreted in the urine [9]: No unchanged drug was excreted in the urine

Reference: patent US20070093449A1, “Novel IV formulation of tipifarnib” (priority 2005, published 2007)
